Like-named read-outs stand apart in the source and are kept apart here. Square brackets hold non-standard residues; d marks the D form. Peptide text beside a SMILES is read from it. * marks the point of attachment. 5FAM = O=C1OC2(c3ccc(O)cc3Oc3cc(O)ccc32)c2ccc(C(=O)*)cc21; Nle = CCCC[C@H](N)C(=O)O; Cbz = O=C(OCc1ccccc1)*
What was measured:
calpain [1] = conditions: cited from earlier work; for IC50: read-out: IC50, calpain inhibitor; for Ki: read-out: Ki for calpain
TBI = conditions: large multicenter clinical trials in TBI; ref [4],[5]; cited from earlier work
[2] = molecular target: T1, recombinant human calpain-1 (Homo sapiens, UniProt P07384); assay: Inhibition of calpain-1 cleavage of CS FRET peptide by titrated CAST/ScrCAST; format: biochemical; conditions: up to 1 μM; 8 μM CS substrate; 26.6 nM recombinant human calpain-1; 37C
T1 sequence (P07384 1-714): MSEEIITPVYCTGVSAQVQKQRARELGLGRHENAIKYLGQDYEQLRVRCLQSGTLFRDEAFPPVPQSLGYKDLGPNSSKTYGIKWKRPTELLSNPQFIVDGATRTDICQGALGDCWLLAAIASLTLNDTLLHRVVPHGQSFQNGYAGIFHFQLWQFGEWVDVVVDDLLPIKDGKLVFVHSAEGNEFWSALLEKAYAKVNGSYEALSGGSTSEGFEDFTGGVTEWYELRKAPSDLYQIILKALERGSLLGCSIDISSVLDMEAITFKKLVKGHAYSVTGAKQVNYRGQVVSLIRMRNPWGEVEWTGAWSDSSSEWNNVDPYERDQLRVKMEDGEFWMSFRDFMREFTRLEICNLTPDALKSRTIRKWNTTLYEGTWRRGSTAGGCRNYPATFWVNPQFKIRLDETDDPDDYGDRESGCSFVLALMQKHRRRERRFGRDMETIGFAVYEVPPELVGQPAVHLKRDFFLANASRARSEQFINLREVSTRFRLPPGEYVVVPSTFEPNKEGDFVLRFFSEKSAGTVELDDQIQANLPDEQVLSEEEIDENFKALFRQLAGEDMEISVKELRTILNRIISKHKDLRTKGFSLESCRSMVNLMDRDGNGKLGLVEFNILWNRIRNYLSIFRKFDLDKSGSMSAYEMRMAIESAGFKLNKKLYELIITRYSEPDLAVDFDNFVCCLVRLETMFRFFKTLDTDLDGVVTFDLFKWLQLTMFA
T1 sequence (P04632 1-268 partner): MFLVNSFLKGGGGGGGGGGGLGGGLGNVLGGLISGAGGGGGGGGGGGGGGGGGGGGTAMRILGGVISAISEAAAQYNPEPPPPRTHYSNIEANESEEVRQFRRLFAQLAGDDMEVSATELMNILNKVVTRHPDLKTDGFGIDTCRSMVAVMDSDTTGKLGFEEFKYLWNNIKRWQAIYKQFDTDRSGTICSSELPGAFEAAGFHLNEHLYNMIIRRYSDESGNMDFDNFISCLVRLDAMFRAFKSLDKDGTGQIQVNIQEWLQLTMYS

cathepsin L = conditions: read-out: Ki for cathepsin L; calpastatin peptide; ref [32]−[35]; cited from earlier work
[3] = molecular target: T1, recombinant human calpain-1; assay: CS activation of PEG conjugates by recombinant human calpain-1; format: biochemical; conditions: 37C, 1 h
calpain [4] = assay: Activated CS signal in injured cortex and hippocampus, CCI mouse model; conditions: mouse model of TBI, systemic administration
[5] = tested on: calpain activity in the hippocampus; assay: Activated CS in hippocampal regions; conditions: dentate gyrus, CA1, CA2, CA3; 1 h after injury; n = 10 mice, unpaired t-test
calpain-1 = conditions: read-out: Ki for calpain-1; calpain inhibitor II; ref [13],[24]; cited from earlier work
calpain-2 = conditions: read-out: Ki for calpain-2; calpain inhibitor II; ref [13],[24]; cited from earlier work
cathepsin B = conditions: read-out: Ki for cathepsin B; calpain inhibitor II; ref [13],[24]; cited from earlier work
[6] = tested on: neurofilament and spectrin proteolysis in the cortex; conditions: continuous intra-arterial infusion after TBI; ref [13],[24]; cited from earlier work
[7] = tested on: neuronal and hippocampal culture models of injury; conditions: ref [16]−[19]; cited from earlier work

For `CC(C)[C@H](NC(=O)OCc1ccccc1)C(=O)N[C@H](C=O)Cc1ccccc1` [MDL-28170] (Cbz-Val-Phe-aldehyde), the IC50 (calpain [1]; MDL-28170, ref [64]) is listed as 11 nM and the Ki (calpain [1]; MDL-28170, ref [20],[28]) is listed as 10 nM.

For `CC(=O)[C@H]1CC[C@H]2[C@@H]3CCC4=CC(=O)CC[C@]4(C)[C@H]3CC[C@]12C` [progesterone], the “efficacy as acute stage neuroprotective treatment” value (TBI) is listed as “failed to establish efficacy as an acute stage neuroprotective treatment”.

With “APRLEIVPTMYIYKLSPTGSEKLEDER-K(5FAM)-C-NH2 [ScrCAST]” the “detectable inhibitory activity on calpain-1” value [2] was “does not have any detectable inhibitory activity up to 1 μM”.

For `CC[C@H](C)[C@H](NC(=O)[C@H](Cc1ccc(O)cc1)NC(=O)[C@@H](NC(=O)[C@H](CO)NC(=O)[C@H](CO)NC(=O)[C@H](CCSC)NC(=O)[C@@H]1CCCN1C(=O)[C@@H](N)CC(=O)O)[C@@H](C)O)C(=O)N[C@@H](CCC(=O)O)C(=O)N[C@@H](CCC(=O)O)C(=O)N[C@@H](CC(C)C)C(=O)NCC(=O)N[C@@H](CCCCN)C(=O)N[C@@H](CCCNC(=N)N)C(=O)N[C@@H](CCC(=O)O)C(=O)N[C@H](C(=O)N[C@H](C(=O)N[C@H](C(=O)N1CCC[C@H]1C(=O)N1CCC[C@H]1C(=O)N[C@@H](CCCCN)C(=O)N[C@@H](Cc1ccc(O)cc1)C(=O)N[C@@H](CCCNC(=N)N)C(=O)N[C@@H](CCC(=O)O)C(=O)N[C@@H](CC(C)C)C(=O)N[C@@H](CC(C)C)C(=O)N[C@@H](C)C(=O)N[C@@H](CCCCNC(=O)c1ccc2c(c1)C(=O)OC21c2ccc(O)cc2Oc2cc(O)ccc21)C(=O)N[C@@H](CS)C(N)=O)[C@@H](C)CC)[C@@H](C)O)C(C)C` [CAST] (H-DPMSSTYIEELGKREVTIPPKYRELLAK(5FAM)C-NH2; N-terminus assumed), the Ki (cathepsin L) is listed as 6000 nM and the Ki (calpain [1]; calpastatin peptide, ref [32]−[35]) is listed as 42.6 nM.

With “CAST–PEG–CS: 40 kDa 8-arm PEG scaffold modified with CAST and CS peptide (activity-based nanotheranostic) (chain 1 DPMSSTYIEELGKREVTIPPKYRELLAKC; chain 2 QEVYGAMPKGC; not fully specified; 5FAM on the added lysine; C-terminal amide; cysteine joined to the 8-arm PEG by maleimide chemistry | QSY21 on the N-terminus; Cy5 on the lysine; PEG2 spacer between K(Cy5) and GC; c)” the “inhibition of calpain-1 at increased enzyme concentration” value ([3]; calpain-1 up to 6U (∼380 nM), 8 μM CS) was “able to inhibit activity and cleavage of the CS substrate compared to ScrCAST–PEG–CS”, the “CS activation by calpain-1” value ([3]; conjugates matched to 8 μM CS, 26.6 nM recombinant human calpain-1, Cy5 fluorescence) was “no measured activation of CS peptide” and the “inhibition of calpain activity, cortical vs hippocampal neurons” value (calpain [4]) was “greater ABNT-mediated inhibition of calpain activity in cortical neurons compared to that in hippocampal neurons”. The “sensor activation in hippocampal regions” value [5] was “inhibits activation of CS in the injured hippocampus”.

In the case of `CSCC[C@@H](C=O)NC(=O)[C@H](CC(C)C)NC(=O)[C@H](CC(C)C)NC(C)=O` [calpain inhibitor II] (Ac-Leu-Leu-Met-aldehyde), the Ki (calpain-1) is given as 120 nM, the Ki (calpain-2) is given as 230 nM and the Ki (cathepsin B) is given as 100 nM. The “neurofilament and spectrin proteolysis in the cortex” value [6] was “required continuous intra-arterial infusion after TBI to significantly reduce neurofilament and spectrin proteolysis in the cortex” and the “cell apoptosis, actin and spectrin proteolysis, DNA fragmentation” value [7] was “reduce cell apoptosis, suppress actin and spectrin proteolysis, and inhibit DNA fragmentation”.

For `CCCC[C@@H](C=O)NC(=O)[C@H](CC(C)C)NC(=O)[C@H](CC(C)C)NC(C)=O` [calpain inhibitor I] (Ac-Leu-Leu-[Nle]-aldehyde), the IC50 (calpain [1]; calpain inhibitor I, ref [63]) is listed as 90 nM.

From article PMC11411711 (ACS Nano, 2024)
